Laboratory results taken from patent US20200397691A1, “NICOTINE MOUTH SPRAY” (Fertin Pharma A/S, priority 2017, published 2020).

Settings: nicotine concentration increased from 100 microgram/mL to 14,000 microgram/mL

## CN1CCCC1c1cccnc1 (stereo not shown) [nicotine]
  Decrease of permeability of nicotine across the buccal mucosa (factor): two
